Data taken from the supplement of paper PMC10307832.

Columns and labels:
Test in all cases: relative viability (nuclei count vs DMSO), 5 days (fraction); higher = more cells survive
[1] = compound: CC1=C(N=C(N=C1N)[C@H](CC(=O)N)NC[C@@H](C(=O)N)N)C(=O)N[C@@H]([C@H](C2=CN=CN2)OC3C(C(C(C(O3)CO)O)O)OC4C(C(C(C(O4)CO)O)OC(=O)N)O)C(=O)N[C@H](C)[C@H]([C@H](C)C(=O)N[C@@H]([C@@H](C)O)C(=O)NCCC5=NC(=CS5)C6=NC(=CS6)C(=O)NCCC[S+](C)C)O [Bleomycin] + Cc1nc(Nc2ncc(C(=O)Nc3c(C)cccc3Cl)s2)cc(N2CCN(CCO)CC2)n1 [Dasatinib] (partner 0.075 µM); settings: main component drawn
Outline: (§1)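 Lung cancer cell lines, seeded in 1536-well plates, were treated the following day by pin tool with a single drug or with five library-drug doses (not always all listed) in √10 steps on top of a fixed anchor-drug dose. Cells were fixed and nuclei stained in one step after 5 days, and nuclei were counted. Relative viability is the nuclei count for treated wells divided by that for vehicle wells, reported as medians of duplicate plates.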

[2] = compound: COc1cc([C@@H]2c3cc4c(cc3[C@@H](O[C@@H]3O[C@@H]5CO[C@@H](C)O[C@H]5[C@H](O)[C@H]3O)[C@H]3COC(=O)[C@H]23)OCO4)cc(OC)c1O [Etoposide] + CC(=O)Nc1cccc(-n2c(=O)n(C3CC3)c(=O)c3c(Nc4ccc(I)cc4F)n(C)c(=O)c(C)c32)c1 [Trametinib] (partner 0.02 µM)
Outline: as §1

[3] = compound: COc1cc([C@@H]2c3cc4c(cc3[C@@H](O[C@@H]3O[C@@H]5CO[C@@H](C)O[C@H]5[C@H](O)[C@H]3O)[C@H]3COC(=O)[C@H]23)OCO4)cc(OC)c1O [Etoposide] + COc1cc2c(Oc3ccc(NC(=O)C4(C(=O)Nc5ccc(F)cc5)CC4)cc3F)ccnc2cc1OCCCN1CCOCC1 [Foretinib] (partner 0.25 µM)
Outline: as §1

[4] = compound: COc1cc([C@@H]2c3cc4c(cc3[C@@H](O[C@@H]3O[C@@H]5CO[C@@H](C)O[C@H]5[C@H](O)[C@H]3O)[C@H]3COC(=O)[C@H]23)OCO4)cc(OC)c1O [Etoposide] + CS(=O)(=O)N1CCN(Cc2cc3nc(-c4cccc5[nH]ncc45)nc(N4CCOCC4)c3s2)CC1 [Pictilisib] (partner 1 µM)
Outline: as §1

Cell Line | relative viability ([1]; first compound 0.01 µM) | relative viability ([1]; first compound 0.03162 µM) | relative viability ([1]; first compound 0.1 µM) | relative viability ([1]; first compound 0.3162 µM) | relative viability ([1]; first compound 1 µM) | relative viability ([2]; first compound 0.01 µM) | relative viability ([2]; first compound 0.03162 µM) | relative viability ([2]; first compound 0.1 µM) | relative viability ([2]; first compound 0.3162 µM) | relative viability ([2]; first compound 1 µM) | relative viability ([3]; first compound 0.01 µM) | relative viability ([3]; first compound 0.03162 µM) | relative viability ([3]; first compound 0.3162 µM) | relative viability ([3]; first compound 1 µM) | relative viability ([4]; first compound 0.01 µM) | relative viability ([4]; first compound 0.03162 µM) | relative viability ([4]; first compound 0.1 µM) | relative viability ([4]; first compound 0.3162 µM) | relative viability ([4]; first compound 1 µM) | relative viability ([3]; first compound 0.1 µM)
NCI-H2126 | 0.596 | 0.619 | 0.665 | 0.357 | 0.276 | 0.539 | 0.683 | 0.427 | 0.455 | 0.312 | 1.05 | 1.08 | 0.712 | 0.394 | 0.536 | 0.55 | 0.419 | 0.392 | 0.332 | 
LK-2 | 0.209 | 0.193 | 0.248 | 0.176 | 0.169 | 0.688 | 0.861 | 0.498 | 0.438 | 0.2 | 0.879 | 1.17 | 0.912 | 0.401 | 0.573 | 0.572 | 0.407 | 0.476 | 0.26 | 0.933
NCI-H1437 | 0.388 | 0.422 | 0.39 | 0.164 | 0.23 | 0.417 | 0.551 | 0.361 | 0.412 | 0.298 | 1.21 | 1.2 | 0.943 | 0.44 | 0.588 | 0.504 | 0.21 | 0.209 | 0.122 | 1.27
COR-L23 | 0.394 | 0.276 | 0.215 | 0.0981 | 0.0987 | 0.578 | 0.666 | 0.348 | 0.488 | 0.233 | 0.954 | 1.14 | 0.744 | 0.33 | 0.733 | 0.726 | 0.401 | 0.418 | 0.122 | 1
ABC-1 | 0.516 | 0.53 | 0.61 | 0.31 | 0.285 |  |  |  |  |  | 1.06 | 0.951 | 0.5 | 0.271 | 0.765 | 0.711 | 0.386 | 0.345 | 0.228 | 0.65
SW 900 | 0.48 | 0.418 | 0.241 | 0.147 | 0.134 | 0.741 | 0.653 | 0.649 | 0.354 | 0.25 | 0.806 | 0.87 | 0.596 | 0.278 |  |  |  |  |  | 0.725
PC-14 | 0.176 | 0.126 | 0.0817 | 0.0123 | 0.0118 | 0.715 | 0.678 | 0.798 | 0.491 | 0.229 | 0.953 | 0.922 | 0.934 | 0.832 | 0.598 | 0.638 | 0.543 | 0.371 | 0.289 | 0.995
NCI-H1648 |  |  |  |  |  |  | 0.552 | 0.362 | 0.523 | 0.416 |  |  |  |  |  |  |  |  |  | 
A549 |  |  |  |  |  |  |  |  |  |  | 0.773 | 1.01 | 0.236 | 0.068 | 0.49 | 0.432 | 0.221 | 0.0914 | 0.0659 | 0.753
A-427 | 0.53 | 0.56 | 0.496 | 0.137 | 0.144 | 0.695 | 0.812 | 0.621 | 0.47 | 0.296 | 0.947 | 1.08 | 0.424 | 0.284 | 0.726 | 0.817 | 0.507 | 0.469 | 0.169 | 0.853
NCI-H1792 | 0.698 | 0.805 | 1.01 | 0.439 | 0.283 | 0.47 | 0.5 |  | 0.371 | 0.335 |  |  |  |  | 0.261 | 0.261 | 0.129 | 0.216 | 0.147 | 
LCLC-97TM1 | 0.553 | 0.576 | 0.619 | 0.208 | 0.123 | 0.22 | 0.218 | 0.174 | 0.126 | 0.115 | 0.87 | 0.988 | 0.341 | 0.173 |  | 0.172 | 0.115 | 0.116 | 0.109 | 0.732
NCI-H1703 |  |  |  |  |  |  |  |  |  |  | 0.39 | 0.34 | 0.268 | 0.343 | 0.234 | 0.313 | 0.269 | 0.214 | 0.171 | 0.349
LCLC-103H | 0.382 | 0.448 | 0.418 | 0.316 | 0.214 | 0.607 | 0.748 | 0.742 | 0.64 | 0.582 | 0.592 | 0.597 | 0.636 | 0.502 | 0.541 | 0.74 | 0.527 | 0.679 | 0.519 | 0.77
Calu-6 |  |  |  |  |  |  |  |  |  |  | 0.825 | 0.922 | 0.41 | 0.234 | 0.841 | 0.908 | 0.764 | 0.457 | 0.25 | 0.921
NCI-H2342 | 0.311 | 0.335 | 0.339 | 0.274 | 0.277 | 0.777 | 0.881 | 0.505 | 0.355 | 0.344 | 0.878 | 1.02 | 0.359 | 0.298 |  |  |  |  |  | 0.493
EBC-1 |  |  |  |  |  |  |  |  |  |  | 0.119 | 0.107 | 0.102 | 0.107 | 0.362 | 0.384 | 0.218 | 0.287 | 0.156 | 0.12
NCI-H1299 |  |  |  |  |  |  |  |  |  |  | 1.07 | 1.11 | 0.997 | 0.811 | 0.777 | 0.672 | 0.641 | 0.644 | 0.332 | 1.11
NCI-H522 | 0.791 | 0.716 | 0.518 | 0.43 | 0.328 | 0.756 | 0.875 | 0.744 | 0.703 | 0.649 |  |  |  |  |  |  |  |  |  | 
IA-LM |  |  |  |  |  |  |  |  |  |  | 1.06 | 1.09 | 0.975 | 0.494 | 0.398 | 0.31 | 0.236 | 0.282 | 0.138 | 0.865
